From ChEMBL document CHEMBL3351718 (Bioorg Med Chem Lett, 2014)

What was measured:
[1] = target: Hepatocyte growth factor receptor (Homo sapiens, UniProt P08581); assay: Inhibition of recombinant MET kinase domain (unknown origin)
[2] = target: Vascular endothelial growth factor receptor 2 (Homo sapiens, UniProt P35968); assay: Inhibition of recombinant VEGFR2 kinase domain (unknown origin)
HUVEC = assay: Growth inhibition of HUVEC cells; conditions: Homo sapiens
[3] = target: Proto-oncogene tyrosine-protein kinase receptor Ret (Homo sapiens, UniProt P07949); assay: Inhibition of RET (unknown origin)
[4] = target: Mast/stem cell growth factor receptor Kit (Homo sapiens, UniProt P10721); assay: Inhibition of c-Kit (unknown origin)
[5] = Growth inhibition of human MKN45 cells; conditions: MKN-45

Vascular endothelial growth factor receptor 2, sequence (P35968 whole entry, the tested form may be a part): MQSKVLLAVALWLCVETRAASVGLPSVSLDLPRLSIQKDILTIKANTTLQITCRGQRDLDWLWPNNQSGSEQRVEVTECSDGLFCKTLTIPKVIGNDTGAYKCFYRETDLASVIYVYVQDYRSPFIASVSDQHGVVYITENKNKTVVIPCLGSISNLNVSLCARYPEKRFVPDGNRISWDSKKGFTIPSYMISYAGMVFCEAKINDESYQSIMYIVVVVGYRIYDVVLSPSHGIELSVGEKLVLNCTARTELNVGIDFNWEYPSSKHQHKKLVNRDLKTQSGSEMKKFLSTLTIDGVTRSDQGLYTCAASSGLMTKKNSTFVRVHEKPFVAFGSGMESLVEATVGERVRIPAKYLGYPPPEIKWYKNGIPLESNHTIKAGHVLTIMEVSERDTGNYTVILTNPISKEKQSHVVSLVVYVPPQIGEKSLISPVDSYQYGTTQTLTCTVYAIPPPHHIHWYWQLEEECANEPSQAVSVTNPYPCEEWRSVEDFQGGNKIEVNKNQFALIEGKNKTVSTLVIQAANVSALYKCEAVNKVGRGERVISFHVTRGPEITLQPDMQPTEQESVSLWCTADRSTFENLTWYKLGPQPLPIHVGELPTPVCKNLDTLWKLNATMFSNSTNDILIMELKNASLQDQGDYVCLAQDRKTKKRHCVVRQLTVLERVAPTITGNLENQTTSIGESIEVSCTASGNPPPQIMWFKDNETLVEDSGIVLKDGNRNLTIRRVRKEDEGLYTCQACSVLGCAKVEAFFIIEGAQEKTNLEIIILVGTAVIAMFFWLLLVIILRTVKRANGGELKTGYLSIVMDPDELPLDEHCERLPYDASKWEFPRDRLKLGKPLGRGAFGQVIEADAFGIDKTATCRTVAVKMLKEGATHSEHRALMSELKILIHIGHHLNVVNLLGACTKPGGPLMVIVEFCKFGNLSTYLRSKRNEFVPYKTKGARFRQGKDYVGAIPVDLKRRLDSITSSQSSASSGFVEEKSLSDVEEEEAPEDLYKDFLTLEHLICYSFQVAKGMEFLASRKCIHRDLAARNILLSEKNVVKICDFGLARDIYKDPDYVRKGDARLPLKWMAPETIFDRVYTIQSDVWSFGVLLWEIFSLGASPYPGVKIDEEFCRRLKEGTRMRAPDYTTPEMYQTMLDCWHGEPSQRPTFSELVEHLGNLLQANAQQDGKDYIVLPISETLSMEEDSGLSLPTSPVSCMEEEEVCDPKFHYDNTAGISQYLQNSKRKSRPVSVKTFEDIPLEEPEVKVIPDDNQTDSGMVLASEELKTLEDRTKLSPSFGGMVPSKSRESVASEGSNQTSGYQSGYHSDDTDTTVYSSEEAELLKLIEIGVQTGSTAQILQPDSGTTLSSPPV
Hepatocyte growth factor receptor, sequence (P08581 whole entry, the tested form may be a part): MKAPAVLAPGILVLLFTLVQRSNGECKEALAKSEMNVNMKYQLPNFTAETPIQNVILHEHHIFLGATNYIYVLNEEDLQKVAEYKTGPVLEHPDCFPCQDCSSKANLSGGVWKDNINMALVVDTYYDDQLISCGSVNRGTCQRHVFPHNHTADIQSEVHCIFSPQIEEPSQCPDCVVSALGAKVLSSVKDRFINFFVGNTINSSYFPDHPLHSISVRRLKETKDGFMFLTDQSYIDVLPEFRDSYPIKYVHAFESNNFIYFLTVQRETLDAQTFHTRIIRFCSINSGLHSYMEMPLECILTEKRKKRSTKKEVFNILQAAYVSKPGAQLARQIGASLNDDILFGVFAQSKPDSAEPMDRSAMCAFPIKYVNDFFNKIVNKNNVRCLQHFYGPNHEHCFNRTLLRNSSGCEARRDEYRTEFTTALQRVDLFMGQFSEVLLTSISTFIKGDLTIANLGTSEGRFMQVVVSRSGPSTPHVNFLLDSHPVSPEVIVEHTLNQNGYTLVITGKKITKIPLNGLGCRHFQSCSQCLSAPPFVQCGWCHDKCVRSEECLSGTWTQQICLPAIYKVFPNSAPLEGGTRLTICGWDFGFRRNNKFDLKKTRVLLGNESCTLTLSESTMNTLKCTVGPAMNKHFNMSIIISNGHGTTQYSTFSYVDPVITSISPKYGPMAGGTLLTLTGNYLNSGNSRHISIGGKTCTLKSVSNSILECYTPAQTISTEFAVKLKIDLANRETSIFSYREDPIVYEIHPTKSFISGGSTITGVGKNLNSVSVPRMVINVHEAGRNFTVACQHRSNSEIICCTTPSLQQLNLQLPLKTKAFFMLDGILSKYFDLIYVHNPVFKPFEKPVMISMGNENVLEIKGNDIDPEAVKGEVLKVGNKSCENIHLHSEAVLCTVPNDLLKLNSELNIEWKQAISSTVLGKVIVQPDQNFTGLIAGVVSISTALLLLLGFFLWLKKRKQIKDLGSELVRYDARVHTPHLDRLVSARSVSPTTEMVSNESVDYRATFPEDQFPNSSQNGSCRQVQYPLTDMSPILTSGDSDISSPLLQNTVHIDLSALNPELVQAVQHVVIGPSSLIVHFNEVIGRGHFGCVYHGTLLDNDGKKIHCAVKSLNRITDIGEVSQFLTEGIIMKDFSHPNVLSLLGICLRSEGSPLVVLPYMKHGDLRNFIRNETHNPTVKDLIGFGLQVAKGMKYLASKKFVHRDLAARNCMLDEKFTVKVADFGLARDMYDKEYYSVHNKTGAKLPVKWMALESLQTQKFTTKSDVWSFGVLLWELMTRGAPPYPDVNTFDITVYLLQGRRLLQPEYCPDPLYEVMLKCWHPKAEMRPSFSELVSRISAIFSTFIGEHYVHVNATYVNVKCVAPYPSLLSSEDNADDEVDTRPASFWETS
Mast/stem cell growth factor receptor Kit, sequence (P10721 whole entry): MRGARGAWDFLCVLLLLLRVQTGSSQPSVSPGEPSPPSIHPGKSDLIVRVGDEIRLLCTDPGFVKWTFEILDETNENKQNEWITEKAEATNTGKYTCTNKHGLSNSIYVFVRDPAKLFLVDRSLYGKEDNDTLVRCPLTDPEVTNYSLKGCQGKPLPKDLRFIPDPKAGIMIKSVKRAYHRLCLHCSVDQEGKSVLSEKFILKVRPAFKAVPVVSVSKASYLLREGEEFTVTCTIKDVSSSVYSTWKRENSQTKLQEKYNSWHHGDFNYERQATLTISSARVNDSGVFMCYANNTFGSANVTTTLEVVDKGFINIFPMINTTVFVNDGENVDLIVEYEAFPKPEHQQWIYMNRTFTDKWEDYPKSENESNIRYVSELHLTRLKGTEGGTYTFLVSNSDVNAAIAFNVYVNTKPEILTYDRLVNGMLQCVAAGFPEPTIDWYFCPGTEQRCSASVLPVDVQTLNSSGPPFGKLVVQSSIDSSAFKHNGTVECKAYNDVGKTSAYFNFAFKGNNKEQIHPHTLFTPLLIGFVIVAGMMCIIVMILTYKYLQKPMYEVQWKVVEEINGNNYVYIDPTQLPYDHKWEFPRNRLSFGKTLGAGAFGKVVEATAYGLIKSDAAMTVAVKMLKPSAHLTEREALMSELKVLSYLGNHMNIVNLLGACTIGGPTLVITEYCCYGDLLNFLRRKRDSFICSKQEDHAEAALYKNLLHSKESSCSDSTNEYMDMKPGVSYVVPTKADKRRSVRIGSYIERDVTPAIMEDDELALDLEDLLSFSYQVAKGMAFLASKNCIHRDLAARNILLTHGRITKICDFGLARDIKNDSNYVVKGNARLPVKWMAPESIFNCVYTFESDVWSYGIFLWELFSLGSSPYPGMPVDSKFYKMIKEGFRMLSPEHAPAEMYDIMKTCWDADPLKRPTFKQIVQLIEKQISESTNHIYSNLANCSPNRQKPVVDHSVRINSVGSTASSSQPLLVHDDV
Proto-oncogene tyrosine-protein kinase receptor Ret, sequence (P07949 whole entry): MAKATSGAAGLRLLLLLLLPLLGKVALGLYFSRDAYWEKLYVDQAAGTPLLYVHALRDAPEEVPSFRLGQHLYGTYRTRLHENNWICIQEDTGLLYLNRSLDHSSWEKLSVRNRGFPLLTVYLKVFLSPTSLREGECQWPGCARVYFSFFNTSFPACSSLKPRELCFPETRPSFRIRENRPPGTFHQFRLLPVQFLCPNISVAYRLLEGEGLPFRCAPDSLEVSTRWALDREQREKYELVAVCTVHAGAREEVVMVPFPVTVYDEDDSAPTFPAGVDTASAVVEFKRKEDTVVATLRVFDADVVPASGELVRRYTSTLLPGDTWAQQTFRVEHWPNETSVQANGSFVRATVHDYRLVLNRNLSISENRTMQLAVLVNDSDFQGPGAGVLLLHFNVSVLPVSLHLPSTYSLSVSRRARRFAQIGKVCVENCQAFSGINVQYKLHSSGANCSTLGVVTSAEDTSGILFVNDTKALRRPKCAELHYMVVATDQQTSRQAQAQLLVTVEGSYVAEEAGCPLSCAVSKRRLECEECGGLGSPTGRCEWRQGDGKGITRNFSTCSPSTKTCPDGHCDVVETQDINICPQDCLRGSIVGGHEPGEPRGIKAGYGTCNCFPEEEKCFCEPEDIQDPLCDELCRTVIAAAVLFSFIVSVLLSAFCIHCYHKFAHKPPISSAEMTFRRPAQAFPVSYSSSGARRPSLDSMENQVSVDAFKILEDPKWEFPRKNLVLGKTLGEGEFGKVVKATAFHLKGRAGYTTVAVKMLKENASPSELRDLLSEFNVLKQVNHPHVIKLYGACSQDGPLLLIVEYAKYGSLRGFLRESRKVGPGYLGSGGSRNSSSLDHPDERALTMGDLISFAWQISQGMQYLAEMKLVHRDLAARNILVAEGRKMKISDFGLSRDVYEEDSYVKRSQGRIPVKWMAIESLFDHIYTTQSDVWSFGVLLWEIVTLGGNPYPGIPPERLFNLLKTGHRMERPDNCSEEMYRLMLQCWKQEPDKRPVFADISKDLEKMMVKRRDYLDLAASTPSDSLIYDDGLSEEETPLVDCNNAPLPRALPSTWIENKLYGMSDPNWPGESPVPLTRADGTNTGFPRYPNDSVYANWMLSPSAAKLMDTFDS

Structure (SMILES) | IC50 [1] [µM] | IC50 [2] [µM] | further results
Nc1nccc(Oc2ccc(-n3cc(C(=O)Nc4ccc(F)cc4)ccc3=O)cc2F)c1Cl | > 25 |  | 
Nc1nccc(Oc2ccc(-n3cccc(C(=O)Nc4ccc(F)cc4)c3=O)cc2F)c1Cl | > 25 |  | 
COc1cc(=O)n(-c2ccc(Oc3ccnc(N)c3I)c(F)c2)cc1C(=O)NCc1ccc(F)cc1 |  | > 25 | IC50 (HUVEC): 2.41 µM; IC50 [3]: > 25 µM; IC50 [4]: > 25 µM; IC50 [5]: > 25 µM
Nc1nccc(Oc2ccc(-n3ccc(C(=O)Nc4ccc(F)cc4)cc3=O)cc2F)c1Cl | > 25 |  | 
Nc1nccc(Oc2ccc(-n3cc(C(=O)NCc4ccc(F)cc4)ccc3=O)cc2F)c1Cl |  | > 25 | 
COc1cc(=O)n(-c2ccc(Oc3ccnc(N)c3Cl)c(F)c2)cc1C(=O)NCc1ccc(F)cc1 |  | > 25 | IC50 (HUVEC): 2.41 µM; IC50 [3]: > 25 µM; IC50 [4]: > 25 µM; IC50 [5]: > 25 µM
Nc1nccc(Oc2ccc(-n3cccc(C(=O)NCc4ccc(F)cc4)c3=O)cc2F)c1Cl | > 25 |  | 
Nc1nccc(Oc2ccc(-n3ccc(C(=O)NCc4ccc(F)cc4)cc3=O)cc2F)c1Cl | > 25 |  | 
